Experimental data taken from US20040014144A1, “Method of screening for substances acting on MSK1” (Leo Pharmaceutical Products Ltd. A/S, priority 1999, published 2004).

What was measured:
[1] = system: TNF-α secretion in THP-1 cells; experiment: LPS induced secretion of TNF-α in THP-1 cells, enzyme immuno assay; type: cell-based, human; settings: for inhibition of secretion of TNF-α: THP-1 cells, 1 μM of each compound, 60 min preincubation, 1 μg/ml LPS 5 hours
Protocol: (§1) The mononuclear cells (PBMC) were isolated from human peripheral blood by Lymphoprep® fractionation (Nycomed, Norway) and the THP-1 cells were obtained from the American Type Culture Collection (Accession No. TIB-202). Both cell lines were suspended in RPMI 1640 with 2% fetal calf serum (FCS), 2 mM L-glutamine, 100 U/ml penicillin and […] streptomycin. […] Louis, Mo., USA). […] The levels of IL-1β and TNF-α were measured in the culture supernatant by enzyme immuno assays (monoclonal antibodies were obtained from R & D Systems, Abingdon, UK).

[2] = system: IL-1β secretion in PBMC; experiment: LPS induced secretion of IL-1β in PBMC, enzyme immuno assay; type: cell-based, human; settings: for inhibition of secretion of IL-1β: 30 min preincubation, 1 μg/ml LPS 18 hours
Protocol: as §1

[3] = system: NFκB transcriptional activity in THP-1 cells; experiment: NFκB-luciferase reporter gene assay in LPS stimulated THP-1 cells; type: cell-based, human; settings: for reporter gene (luciferase) activity, % of the control value: THP-1 cells transfected with pBIIX, 1 μM of each compound, 1 hour pretreatment, 1 μg/ml LPS 5 h
Protocol: All transfections were performed in triplicate.

[4] = system: TNF-α secretion in PBMC; experiment: LPS induced secretion of TNF-α in PBMC, enzyme immuno assay; type: cell-based, human; settings: for inhibition of secretion of TNF-α: 30 min preincubation, 1 μg/ml LPS 18 hours
Protocol: as §1

[5] = system: THP-1 or peripheral blood mononuclear cells (PBMC); experiment: LPS induced secretion of TNF-α and IL-1β in THP-1 or PBMC (summary statement); type: cell-based, human
Protocol: as §1

[6] = biological target: MSK1 (Homo sapiens, UniProt O75582); settings: from reference (5); cited from earlier work
Sequence of MSK1 (O75582 whole entry): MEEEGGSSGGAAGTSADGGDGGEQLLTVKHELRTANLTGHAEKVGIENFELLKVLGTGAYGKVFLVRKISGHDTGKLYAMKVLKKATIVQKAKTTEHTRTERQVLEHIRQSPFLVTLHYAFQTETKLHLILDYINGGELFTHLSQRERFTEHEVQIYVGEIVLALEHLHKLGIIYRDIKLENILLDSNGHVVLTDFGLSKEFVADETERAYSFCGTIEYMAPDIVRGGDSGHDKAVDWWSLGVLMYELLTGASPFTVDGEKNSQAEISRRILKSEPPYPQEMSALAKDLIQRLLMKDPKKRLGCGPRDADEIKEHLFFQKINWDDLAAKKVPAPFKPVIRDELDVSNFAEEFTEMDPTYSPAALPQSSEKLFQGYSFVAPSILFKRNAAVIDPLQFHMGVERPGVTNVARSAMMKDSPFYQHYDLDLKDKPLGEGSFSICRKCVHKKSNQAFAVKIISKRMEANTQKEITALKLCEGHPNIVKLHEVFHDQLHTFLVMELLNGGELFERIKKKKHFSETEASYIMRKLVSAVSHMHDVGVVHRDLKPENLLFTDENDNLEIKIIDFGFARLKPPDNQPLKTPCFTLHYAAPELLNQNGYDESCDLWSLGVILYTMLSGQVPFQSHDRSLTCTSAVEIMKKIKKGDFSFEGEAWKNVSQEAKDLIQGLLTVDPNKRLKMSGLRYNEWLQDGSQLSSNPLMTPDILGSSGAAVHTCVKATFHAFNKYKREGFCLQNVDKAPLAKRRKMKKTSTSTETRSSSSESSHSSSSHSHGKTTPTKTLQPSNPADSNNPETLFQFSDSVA

Row | Structure (SMILES) | inhibition at 1 µM ([1]; Homo sapiens, THP-1, read-out: inhibition of secretion of TNF-α) [%] | inhibition at 1 µM ([2]; Homo sapiens, read-out: inhibition of secretion of IL-1β) [%] | reporter gene (luciferase) activity, % of the control value [3] | inhibition at 1 µM ([4]; Homo sapiens, read-out: inhibition of secretion of TNF-α) [%] | inhibition of secretion of TNF-α [1] [%] | inhibition of secretion of IL-1β ([2]; 1 μM compound) | LPS induced secretion of TNF-α and IL-1β [5] | LPS induced NFκB transcriptional activity ([3]; THP-1 cells, summary statement) | inhibition of MSK1 activity in vitro [6] | inhibition of secretion of TNF-α ([4]; 1 μM compound) | inhibition of secretion of IL-1β ([2]; 10 μM compound) | inhibition of secretion of TNF-α ([4]; 10 μM compound)
1 | C[S+]([O-])c1ccc(-c2nc(-c3ccncc3)c(-c3ccc(F)cc3)[nH]2)cc1 (stereo not drawn) [SB203580] | 30 | 40 to 60 | 49% | 40 to 60 | – | – | – | – | – | – | – | –
2 | Cn1cc(C2=C(c3cn(CCCSC(=N)N)c4ccccc34)C(=O)NC2=O)c2ccccc21 [Ro318220] | – | – | 15% | – | 50 | approximately 90% | strongly inhibited | strongly inhibited | potent inhibitor | approximately 90% | – | –
3 | COc1cccc(-c2cc(=O)c3ccccc3o2)c1N [PD98059] | – | – | no effect | – | 5 | – | – | – | – | – | about 40% | about 40%
